BindingDB's records for doi:10.1021/jm050004k (Karo Bio, 2005)

How the values were obtained:
[1] = target: T1, Thyroid hormone receptor alpha (Homo sapiens, UniProt P10827); experiment: TRalpha-Binding Assay and Thyroid Response Element (TRAFalpha1) Reporter Assay.; details: pH 7; 4 °C
T1 sequence (P10827 whole entry): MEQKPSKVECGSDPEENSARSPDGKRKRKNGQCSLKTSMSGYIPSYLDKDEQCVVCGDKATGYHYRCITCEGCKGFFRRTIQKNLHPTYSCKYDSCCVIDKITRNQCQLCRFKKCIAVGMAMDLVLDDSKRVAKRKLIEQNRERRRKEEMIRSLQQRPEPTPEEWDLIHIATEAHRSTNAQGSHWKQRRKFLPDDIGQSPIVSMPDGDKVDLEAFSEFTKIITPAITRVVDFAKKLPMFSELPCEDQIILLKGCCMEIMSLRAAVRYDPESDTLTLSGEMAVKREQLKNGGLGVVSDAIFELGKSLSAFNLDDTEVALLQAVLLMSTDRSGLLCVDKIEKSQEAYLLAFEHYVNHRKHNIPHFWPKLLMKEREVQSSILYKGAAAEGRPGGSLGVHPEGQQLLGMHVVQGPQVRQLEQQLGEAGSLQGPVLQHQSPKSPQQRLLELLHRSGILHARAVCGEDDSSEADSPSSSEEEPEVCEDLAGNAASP
Description: IIC50 is the concentration of each compound required to inhibit 50% binding of 125I-T3 to hTRalpha. EC50 is the concentration of compound required to inhibit 50% of T3-induced TRalpha-activation in CHOK1 cells stably transfected with hTRalpha using alkaline phosphatase reporter assay.

[2] = target: T2, Thyroid hormone receptor beta (Homo sapiens, UniProt P10828); experiment: TRbeta-Binding Assay and Thyroid Response Element (TRAFbeta1) Reporter Assay.; details: pH 7; 4 °C
T2 sequence (P10828 whole entry): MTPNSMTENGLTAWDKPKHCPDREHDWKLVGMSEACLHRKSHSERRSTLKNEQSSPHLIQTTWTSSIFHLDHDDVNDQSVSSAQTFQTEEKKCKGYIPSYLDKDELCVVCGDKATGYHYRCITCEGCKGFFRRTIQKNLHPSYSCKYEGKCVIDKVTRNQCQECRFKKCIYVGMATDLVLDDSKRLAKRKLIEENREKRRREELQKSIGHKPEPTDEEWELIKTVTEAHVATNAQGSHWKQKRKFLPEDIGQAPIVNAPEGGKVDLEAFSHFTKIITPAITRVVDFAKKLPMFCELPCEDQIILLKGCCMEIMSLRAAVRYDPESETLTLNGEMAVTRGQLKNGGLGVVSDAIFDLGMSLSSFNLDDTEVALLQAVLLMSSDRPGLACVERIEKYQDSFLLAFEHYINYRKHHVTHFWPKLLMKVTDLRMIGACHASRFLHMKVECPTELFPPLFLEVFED
Description: IC50 is the concentration of each compound required to inhibit 50% binding of 125I-T3 to hTRbeta. EC50 is the concentration of compound required to inhibit 50% of T3-induced TRbeta-activation in CHOK1 cells stably transfected with hTRbeta using alkaline phosphatase reporter assay.

In the case of `CCC(CC)COc1c(Br)cc(CC(=O)O)cc1Br` [2-[3,5-dibromo-4-(2-ethylbutoxy)phenyl]acetic acid], the EC50 [1] is reported as 0.82 nM and the EC50 [2] is reported as 0.7 nM.
In the case of `CC(C)CCOc1c(Br)cc(CC(=O)O)cc1Br` [2-[3,5-dibromo-4-(3-methylbutoxy)phenyl]acetic acid], the IC50 [2] is reported as 1800 nM.
Compound `O=C(O)Cc1cc(Br)c(OCC2CCCCC2)c(Br)c1` [2-[3,5-dibromo-4-(cyclohexylmethoxy)phenyl]acetic acid] has an EC50 [1] of 0.42 nM and an EC50 [2] of 0.52 nM.
`CCCCCCOc1c(Br)cc(CC(=O)O)cc1Br` [2-[3,5-dibromo-4-(hexyloxy)phenyl]acetic acid] was tested, and the EC50 [1] was 0.7 nM and the EC50 [2] was 0.8 nM.
`CCCCCCOc1c(Br)cc(CCC(=O)O)cc1Br` [3-[3,5-dibromo-4-(hexyloxy)phenyl]propanoic acid] showed an EC50 [1] of 0.6 nM and an EC50 [2] of 1 nM.
`O=C(O)CCc1cc(Br)c(OCC2CCCCC2)c(Br)c1` [JMC496635 Compound 9] showed an EC50 [1] of 0.53 nM and an EC50 [2] of 0.12 nM.
